Measurements from article PMC6079084, “Capacity for instantaneous catabolism of preferred and non-preferred carbon sources in Escherichia coli and Bacillus subtilis” (Scientific Reports, 2018).
Each block holds one molecule with its values, some of them ahead of it.

Experiments:
PfkA = biological target: T1, PfkA (Bacillus subtilis, UniProt O34529); assay: coupled spectrophotometric assay, NADH at […] nm; format: biochemical
T1 construct: full-length, N-terminal His6-Gly3 tag (from primer), recombinant in E. coli BW25113, pTrc99KK, Ni-NTA
T1 sequence (O34529 2-319): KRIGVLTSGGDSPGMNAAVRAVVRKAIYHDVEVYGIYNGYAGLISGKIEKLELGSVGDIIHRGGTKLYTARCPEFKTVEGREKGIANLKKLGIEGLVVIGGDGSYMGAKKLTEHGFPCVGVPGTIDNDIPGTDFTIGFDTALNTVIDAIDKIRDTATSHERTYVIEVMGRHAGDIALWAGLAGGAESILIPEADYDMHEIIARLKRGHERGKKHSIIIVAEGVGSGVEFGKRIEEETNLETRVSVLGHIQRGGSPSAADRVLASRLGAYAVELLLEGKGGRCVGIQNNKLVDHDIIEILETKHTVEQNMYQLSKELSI

purified protein = substrate: CC(=O)C(=O)O; assay: purified protein; format: biochemical, Bacillus subtilis; conditions: 1 mM ATP, 0.05 mM acetyl-CoA, 15 mM KHCO3, 7 mM MgSO4, 135 mM TEA pH 8, room temperature, pyruvate 0.04-5.0 mM

Ki (PfkA): 40 µM
Molecule: C=C(OP(=O)(O)O)C(=O)O [PEP, phosphoenolpyruvate]

B1: PycA (Bacillus subtilis subsp. subtilis str. 168) (protein)
chain: SQQSIQKVLVANRGEIAIRIFRACTELNIRTVAVYSKEDSGSYHRYKADEAYLVGEGKKPIDAYLDIEGIIDIAKRNKVDAIHPGYGFLSENIHFARRCEEEGIVFIGPKSEHLDMFGDKVKAREQAEKAGIPVIPGSDGPAETLEAVEQFGQANGYPIIIKASLGGGGRGMRIVRSESEVKEAYERAKSEAKAAFGNDEVYVEKLIENPKHIEVQVIGDKQGNVVHLFERDCSVQRRHQKVIEVAPSVSLSPELRDQICEAAVALAKNVNYINAGTVEFLVANNEFYFIEVNPRVQVEHTITEMITGVDIVQTQILVAQGHSLHSKKVNIPEQKDIFTIGYAIQSRVTTEDPQNDFMPDTGKIMAYRSGGGFGVRLDTGNSFQGAVITPYYDSLLVKLSTWALTFEQAAAKMVRNLQEFRIRGIKTNIPFLENVAKHEKFLTGQYDTSFIDTTPELFNFPKQKDRGTKMLTYIGNVTVNGFPGIGKKEKPAFDKPLGVKVDVDQQPARGTKQILDEKGAEGLANWVKEQKSVLLTDTTFRDAHQSLLATRIRSHDLKKIANPTAALWPELFSMEMWGGATFDVAYRFLKEDPWKRLEDLRKEVPNTLFQMLLRSSNAVGYTNYPDNVIKEFVKQSAQSGIDVFRIFDSLNWVKGMTLAIDAVRDTGKVAEAAICYTGDILDKNRTKYDLAYYTSMAKELEAAGAHILGIKDMAGLLKPQAAYELVSALKETIDIPVHLHTHDTSGNGIYMYAKAVEAGVDIIDVAVSSMAGLTSQPSASGFYHAMEGNDRRPEMNVQGVELLSQYWESVRKYYSEFESGMKSPHTEIYEHEMPGGQYSNLQQQAKGVGLGDRWNEVKEMYRRVNDMFGDIVKVTPSSKVVGDMALYMVQNNLTEKDVYEKGESLDFPDSVVELFKGNIGQPHGGFPEKLQKLILKGQEPITVRPGELLEPVSFEAIKQEFKEQHNLEISDQDAVAYALYPKVFTDYVKTTESYGDISVLDTPTFFYGMTLGEEIEVEIERGKTLIVKLISIGEPQPDATRVVYFELNGQPREVVIKDESIKSSVQERLKADRTNPSHIAASMPGTVIKVLAEAGTKVNKGDHLMINEAMKMETTVQAPFSGTIKQVHVKNGEPIQTGDLLLEIEKA
notes: full-length, N-terminal His6-Gly3 tag (from primer), recombinant in E. coli BW25113, pTrc99KK, Ni-NTA
Km (purified protein): 0.10 mM
